{"source": "patent US7183320B2", "about": "“Benzoylsulfonamides and sulfonylbenzamidines for use as antitumour agents” (Eli Lilly and Company, priority 2002, dated 2007)", "type_in_all_cases": "in vivo", "key": {"[1]": {"test_system": "TAXOL RESISTANT HUMAN COLON ADENOCARCINOMA #15/MDR", "assay": "Early stage taxol resistant human colon adenocarcinoma #15/MDR xenograft (Table XII)", "details": "total dose 500 mg/kg: 100 mg/kg/injection IV on days 3–5 and 13–14; Balb/C SCID female mice", "description": "(§1) Conventional Murine Tumor and Human Tumor Xenouraft Assays\n(§2) Inhibition of tumors transplanted into mice is an accepted procedure for studying the efficacy of antitumor agents (Corbett, et al., In vivo Methods for Screening and Preclinical Testing; Use of rodent solid tumors for drug discovery., In: Anticancer Drug Development Guide: Preclinical Screening, Clinical Trials, and Approval, B. Teicher (ed), Humana Press Inc., Totowa, N.J., Chapter 5, pages 75–99 (1997); (Corbett, et al., Int., J. Parmacog., 33, Supplement, 102–122 (1995)). Murine tumors or human xenographs were implanted essentially as described by Corbett in In vivo Methods for Screening and Preclimical Testing; Use of rodent solid tumors for drug discovery. Briefly, the murine tumor or human xenograph was implanted subcutaneously using either 12-gauge trocar implants or counted number of cells. The location for the trocar insertion is midway between the axillary and inguinal region along the side of the mouse. The trocar is slipped approximately ¾ of an inch subcutaneously up toward the axilla before discharging the tumor fragment, and pinching the skin as the trocar is removed., Alternatively, human tumor cells prepared from a […] of donor tumors (5×10^6 cells) were implanted subcutaneously in a hind-leg of a male or female nude mouse (Charles River). Either a test compound in vehicle or vehicle alone was administered by intravenous bolus injection (iv), intraperitoneal injection (ip), or oral gavage (po). Each treatment group, as well as a group of untreated control animals, consisted of five animals per group in each experiment. Subcutaneous tumor response was monitored by tumor volume measurement performed twice each week over the course of the experiment (60–120 days). Body weights were taken as a general measure of toxicity. The subcutaneous tumor data were analyzed by determining the median tumor weight for each treatment group over the course of the experiment and calculating the tumor growth delay as the difference in days for the treatment versus the control tumors to reach a volume of either 500 or 1000 mm^3.\n(§3) The compound of Example 110 was tested against a variety of murine and human tumors substantially as described supra. The parameters measured in each experiment are summarized in the following paragraphs. • Tumor Weight(mg)=(a×b^2)/2 where a=tumor length (mm) and b=tumor width (mm). • Tumor Growth Delay=T−C where T is the median time (days) required for the treatment group tumors to reach a predetermined size, and C is the median time (days) for the control group tumors to reach the same size. Tumor-free survivors are excluded from this calculation, and are tabulated separately (Tumor Free).\n(§4) [formula] • where Tumor Growth Delay is as previously defined and Td is tumor volume doubling time (days), estimated from the best fit straight line from a log-linear growth plot of the control group of tumors in exponential growth (100–800 mg range) • % T/C mass—The treatment and control groups are measured when the control group tumors reach approximately 700 to 1200 mg in size (median group). The median tumor weight of each group is determined (including zeros). The T/C value in percent is an indication of antitumor effectiveness. A T/C≦42% is considered significant antitumor activity. A T/C<10% is considered to indicate highly significant antitumor activity. • Body Weight Loss Nadir—A body weight loss nadir (mean of group) of greater than 20% or drug deaths greater than 20% are considered to indicate an excessively toxic dosage in single course trials. • Activity Rating—the Activity Rating is derived from the Log Kill according to the following table: […]"}, "[2]": {"test_system": "MURINE COLON ADENOCARCINOMA-38", "assay": "Early stage murine colon adenocarcinoma-38 (Table II)", "details": "BDF1 male mice", "description": "as §1, §2, §3, §4"}, "HUMAN BREAST WSU-Br-1": {"test_system": "HUMAN BREAST WSU-Br-1", "assay": "Upstaged human breast WSU-Br-1 xenograft (Table VIII)", "details": "Balb/C SCID female mice", "description": "as §1, §2, §3, §4"}, "[3]": {"details": "total dose 272 mg/kg IV: 20 mg/kg day 3, 40 day 4, 106 mg/kg/injection QD days 5–6"}, "[4]": {"details": "total dose 920 mg/kg IV: 40 mg/kg day 3, 80 day 4, 160 mg/kg/injection QD days 5–9"}, "[5]": {"details": "total dose 1200 mg/kg IV: 80 mg/kg day 3, 160 day 4, 240 day 5, 120 mg/kg/injection BID days 7–9"}, "[6]": {"details": "total dose 500 mg/kg: 100 mg/kg/injection IV on days 11–13 and 19–20"}, "[7]": {"details": "total dose 725 mg/kg: 145 mg/kg/injection IV on days 11–13 and 19–20"}}, "data": [{"smiles": "O=C(NS(=O)(=O)c1ccccc1)c1ccc(Cl)cc1Cl", "note": "[Example 110, N-[2,4-dichlorobenzoyl]phenylsulfonamide]", "values": [{"measurement": "% BODY WT LOSS AT NADIR", "setting": "[1]", "result": "+2.1% ^"}, {"measurement": "% T/C MASS", "setting": "[1]", "result": 10, "unit": "%"}, {"measurement": "ACTIVITY RATING", "setting": "[1]", "result": "++ (1.3–1.9)"}, {"measurement": "DRUG DEATHS", "setting": "[1]", "result": "0/5"}, {"measurement": "GROWTH DELAY", "setting": "[1]", "result": 11, "unit": "days"}, {"measurement": "LOG KILL", "setting": "[1]", "result": 1.4}, {"measurement": "TUMOR FREE AT DAY 38", "setting": "[1]", "result": "0/5"}, {"measurement": "% BODY WT LOSS AT NADIR", "setting": "[2]; [3]", "result": "+3.1%"}, {"measurement": "% T/C MASS", "setting": "[2]; [3]", "result": 0, "unit": "%"}, {"measurement": "ACTIVITY RATING", "setting": "[2]; [3]", "result": "++++ (HIGHLY ACTIVE >2.8)"}, {"measurement": "DRUG DEATHS", "setting": "[2]; [3]", "result": "0/5"}, {"measurement": "GROWTH DELAY (DAYS)", "setting": "[2]; [3]", "result": "All cures"}, {"measurement": "LOG KILL", "setting": "[2]; [3]", "result": ">4.5"}, {"measurement": "TUMOR FREE AT DAY 144", "setting": "[2]; [3]", "result": "5/5"}, {"measurement": "% BODY WT LOSS AT NADIR", "setting": "[2]; [4]", "result": "+7.7%"}, {"measurement": "% T/C MASS", "setting": "[2]; [4]", "result": 0, "unit": "%"}, {"measurement": "ACTIVITY RATING", "setting": "[2]; [4]", "result": "++++ (HIGHLY ACTIVE >2.8)"}, {"measurement": "DRUG DEATHS", "setting": "[2]; [4]", "result": "0/5"}, {"measurement": "GROWTH DELAY (DAYS)", "setting": "[2]; [4]", "result": "All cures"}, {"measurement": "LOG KILL", "setting": "[2]; [4]", "result": ">4.5"}, {"measurement": "TUMOR FREE AT DAY 144", "setting": "[2]; [4]", "result": "5/5"}, {"measurement": "% BODY WT LOSS AT NADIR", "setting": "[2]; [5]", "result": "−5.2", "unit": "%"}, {"measurement": "% T/C MASS", "setting": "[2]; [5]", "result": 0, "unit": "%"}, {"measurement": "ACTIVITY RATING", "setting": "[2]; [5]", "result": "++++ (HIGHLY ACTIVE >2.8)"}, {"measurement": "GROWTH DELAY (DAYS)", "setting": "[2]; [5]", "result": "All cures"}, {"measurement": "LOG KILL", "setting": "[2]; [5]", "result": ">4.5"}, {"measurement": "TUMOR FREE AT DAY 144", "setting": "[2]; [5]", "result": "6/6"}, {"measurement": "% BODY WT LOSS AT NADIR", "setting": "HUMAN BREAST WSU-Br-1; [6]", "result": "+14%"}, {"measurement": "% T/C MASS", "setting": "HUMAN BREAST WSU-Br-1; [6]", "result": 0, "unit": "%"}, {"measurement": "ACTIVITY RATING", "setting": "HUMAN BREAST WSU-Br-1; [6]", "result": "++++ (HIGHLY ACTIVE >2.8)"}, {"measurement": "DRUG DEATHS", "setting": "HUMAN BREAST WSU-Br-1; [6]", "result": "0/5"}, {"measurement": "GROWTH DELAY", "setting": "HUMAN BREAST WSU-Br-1; [6]", "result": 39, "unit": "days"}, {"measurement": "LOG KILL", "setting": "HUMAN BREAST WSU-Br-1; [6]", "result": 2.0}, {"measurement": "TUMOR FREE AT DAY 179", "setting": "HUMAN BREAST WSU-Br-1; [6]", "result": "2/5"}, {"measurement": "% BODY WT LOSS AT NADIR", "setting": "HUMAN BREAST WSU-Br-1; [7]", "result": "+3.9%"}, {"measurement": "% T/C MASS", "setting": "HUMAN BREAST WSU-Br-1; [7]", "result": 0, "unit": "%"}, {"measurement": "ACTIVITY RATING", "setting": "HUMAN BREAST WSU-Br-1; [7]", "result": "++++ (HIGHLY ACTIVE >2.8)"}, {"measurement": "DRUG DEATHS", "setting": "HUMAN BREAST WSU-Br-1; [7]", "result": "0/5"}, {"measurement": "GROWTH DELAY", "setting": "HUMAN BREAST WSU-Br-1; [7]", "result": 57, "unit": "days"}, {"measurement": "LOG KILL", "setting": "HUMAN BREAST WSU-Br-1; [7]", "result": 2.9}, {"measurement": "TUMOR FREE AT DAY 179", "setting": "HUMAN BREAST WSU-Br-1; [7]", "result": "2/5"}]}]}
